Laboratory results reported in patent US9475854B2, “Lead compound for otoprotection: targeting HGF signaling with dihexa” (Washington State University, priority 2014, dated 2016).
Square brackets hold non-standard residues; d marks the D form. Peptide text beside a SMILES is read from it. * marks the point of attachment. Hexanoyl = CCCCCC(=O)*; Ahx = NCCCCCC(=O)O

How the values were obtained:
[1] = system: zebrafish lateral line hair cells; assay: Protection of zebrafish lateral line hair cells from aminoglycoside toxicity (hair cell survival); type: in vivo; settings: for hair cell survival rate: 1 μM Dihexa
Source text: The data is presented as mean+1 standard deviation (s.d.) ***p<0.005. ****p<0.001, with the number of stars being the confidence for the measurements and the p (i.e., p-value) being the probability of obtaining a test statistic result at least as extreme as the one that was actually observed. It is to be appreciated the differences are considered significant at P<0.05. Note also that the 0 Dihexa concentration levels in FIG. 1 and FIG. 2 are control levels no protective Dihexa was introduced as just Neomycin and Gentamicin is present in the hair cells.
Such an example method of operation can be enabled by providing Dihexa concentrations for each ototoxin. […] Toxin concentrations and treatment times are selected so that in each case, a range of about 60% up to about 80% hair cell loss is achieved, sufficient to robustly detect protection. While the methodology described above provides desirable information for a variety of ototoxins, the Dihexa-mediated protection for neomycin, gentamicin, and kanamycin, as enabled herein, is the most desirable because these three antibiotics activate partially independent cell death pathways, such that a single compound may not universally protect hair cells from aminoglycoside toxicity (Owens et al., 2009; Coffin et al., 2009; Vlasits et al., 2012; Coffin et al., 2013).
As part of the analysis process, after treatment, hair cell survival is more often quantitatively assessed by labeling with either the vital dye DASPEI for assessment in live, anesthetized fish, or with an antibody to parvalbumin for quantification in fixed tissue (Harris et al., 2003; Owens et al., 2009; Coffin et al., 2009, 2013). DASPEI allows for rapid assessment with minimal tissue processing time, while immunofluorescence is used to validate DASPEI assessment scores. Labeled hair cells are thereafter viewed using fluorescence microscopy and quantified as described in the published literature (e.g., Harris et al., 2003; Coffin et al., 2009, 2013). […]

[2] = Short duration safety studies; type: in vivo
Source text: This is unsurprising since oncogenesis requires multiple mutations including both oncogene induction and tumor suppressor attenuation. Accordingly, Dihexa, as utilized herein, can also be delivered locally via intratympanic membrane injection of a Dihexa-containing hydrogel (e.g., Salt et al., 2011; Wang et al., 2011) as a way of the proof-of-principle that Dihexa is robustly otoprotective in for example, but not limited to, pre-clinical models.

rat dementia model = settings: in vivo administration (McCoy et al., 2013; unpublished data); cited from earlier work
[3] = system: rat Parkinson's Disease model; settings: in vivo administration (McCoy et al., 2013; unpublished data); cited from earlier work
rats = settings: in vivo in rats (Owens et al., 2008, Rubel et al., 2011); cited from earlier work

| Compound | protection from Neomycin-induced hair cell death ([1]; 1 μM Dihexa across Neomycin dose levels, FIG. 3) | hair cell survival rate ([1]; 50 μM Gentamycin toxicity, FIG. 2) | hair cell survival rate ([1]; 200 μM Neomycin toxicity, FIG. 1) | neoplastic induction [2] | toxicity [2] | symptoms in rat dementia model (rat dementia model) | symptoms in rat Parkinson's Disease model [3] | protection from aminoglycosides (rats) |
| --- | --- | --- | --- | --- | --- | --- | --- | --- |
| CCCCCC(=O)N[C@@H](Cc1ccc(O)cc1)C(=O)N[C@H](C(=O)NCCCCCC(N)=O)[C@@H](C)CC [Dihexa] (Hexanoyl-Tyr-Ile-[Ahx]-NH2) | robust protection | greater than 40% | greater than 60% | lack of neoplastic induction | no apparent toxicity | significantly attenuates symptoms | significantly attenuates symptoms |  |
| CCN1CCc2c(sc(NC(=O)Nc3ccc(Cl)cc3)c2C(N)=O)C1 [PROTO-1] |  |  |  |  |  |  |  | confers protection |
